Data set [1] has as its system group 1 (CHLA02) ATRT cell line. Description: TUNEL assay in group 1 ATRT cell line. The class given is cell-based, human. As for the experimental part:
TUNEL assays were performed using in situ cell death detection kit, Fluorescein, according to manufacturer's instructions (Roche, West Sussex, UK). Pictures were taken at 20× magnification. Percentage of TUNEL positive population was calculated with respect to DAPI-positive cells, in five random fields per cell cultured slide, and averaged as representative population. Fold-changes were obtained by comparing with untreated control. Cell migration and invasive phenotypes of ATRT cell lines was assessed using a Transwell Boyden chamber assay according to manufacturer's instructions (BD Science). In brief, 3.5×10^3 cells were seeded onto membranes with 8 μm pores in Boyden chambers, and incubated at 37° C. Membranes were removed after 18 hours and examined at 10× magnification under the microscope. To enumerate the number of cells that had invaded and migrated, cell counts from five random fields on the membrane was used to estimate the total number of cells migrated across the transwell membrane.

Data set [2] relates to group 2 ATRT cell lines. Description: MTS cell viability assay on group 2 ATRT cell lines. In kind it is cell-based, human. To be noted: for changes in growth / sensitivity: group 2 cell lines (SH, CHLA06, BT16, BT12), epigenetic inhibitors. How it is done:
(§1) ATRT cell line CHLA02 (ATCC, Cat #CRL-3020), CHLA04 (ATCC, Cat #CRL-3036) were cultured according to the manufacturer's protocol. CHLA05 and CHLA06 cells, which were derived from primary ATRTs by Dr. Anat Erdreich-Epstein from the Children's Hospital of Los Angeles, were cultured in DMEM/F12 supplemented with 20 ng/mL FGF, 20 ng/mL EGF, and 1× B27 supplement. SH cells were obtained from Dr. Shih Hwa Choiu at Taipei Veterans General Hospital and was cultured as previously described (Kao et al., 2005). BT12 and BT16, which were kind gifts from Dr. Peter Houghton at Nationalwide Children's Hospital, were cultured in RPMI-1640 supplemented with 10% FBS. ATRT 78C cells was established from a corresponding primary ATRT (T13; diagnosed at The Hospital for Sick Children) and cultured in Neurobasal medium supplemented with 75 ng/mL BSA, 10 ng/mL FGF1, 10 ng/mL EGF, 2 ug/mL Heparin, 1× B27 and 1× N2 supplements. CHLA266 was grown in IMEM media with 10% FBS and 1× ITS. G401 (ATCC, Cat #CRL-1441) was grown in McCoy's 5A media with 10% FBS.
(§2) To assess effects of NOTCH and BMP signaling on ATRT cell phenotypes, cells were treated with N-[N-(3,5-Difluorophenacetyl)-L-alanyl]-S-phenylglycine t-butyl ester (DAPT; EMD Chemicals, Germany, Cat #565770) or Dorsomorphin (DM; Sigma-Aldrich, USA, Cat #P5499) and analyzed using MTS assays for cell viability. […] For epigenomic drug screening experiments, conditions were set up identically with the exception of absorbance readings being taken at 3 and 7 days post-treatment. Cell viability was determined based on mean cell absorbance at 492 nm.
For orientation: Tetrazolium dyes change colour on reduction, which living cells bring about.

Data set [3] concerns group 1 ATRT cell lines. Description: MTS cell viability assay on group 1 ATRT cell lines. In kind it is cell-based, human. To be noted: for growth inhibitory effects / sensitivity: epigenetic inhibitors. How it is done: as §1, §2
Data set [4] has as its system NOTCH signaling. Description: Western blot and qRT-PCR analyses of NOTCH signaling in group 1 ATRT cell lines. To be noted: group 1 cell lines 78C, CHLA02, CHLA05. The class given is cell-based, human. As for the experimental part: Nuclear and whole cell lysates were prepared using cytosol lysis buffer or nuclear buffer F (Sommer et al., 1998) respectively and immunoblotted with antibodies to SMARCB1/BAF47 (BD Biosciences, USA, Cat #612110), cleaved NOTCH1 (Cell Signaling, USA, Cat #2421S), pSMAD1/5 (Cell Signaling, USA, Cat #95165), SMAD1 (Cell Signaling, USA, Cat #9743S) or a-Tubulin (Sigma-Aldrich, USA, Cat #T9026) as per standard methods. Phospho-PDGFRβ P70 was obtained from Santa Cruz Biotechnology (Santa Cruz, Calif. USA, Cat #sc-12909-R). BAF47 immuno-staining of tumor samples was performed by the Hospital for Sick Children Pathology Department (Toronto, ON, Canada) as per standard clinical protocols.
cDNAs were synthesized from high quality RNA using the High Capacity cDNA Reverse Transcription Kit (Applied Biosystem, Cat #4368814) as per the manufacturer's instructions and qRT-PCR analyses were performed using purchased Taqman probes and the TaqMan® Gene Expression Master Mix (Invitrogen) (BAMBI, SOST, BCR [exon2, 8, 16, 18, 21, 23], RGL4, CHCHD10, MMP11, SMARCB1 [exon 2, 5]). A subset of analyses was performed with Platinum SYBR Green qPCR reagent kit (Invitrogen) as per the manufacturer's protocol with in-house designed primers to amplify invariant exons (HES1, HES5). […] Synthesized cDNA were analysed with gene specific probes using the Platinum SYBR green qPCR reagent kit. […]
(In general: A western blot detects proteins with antibodies after separation by electrophoresis.)

For data set [5] the following is noted: cited from earlier work.
Data set [6] has as its system ATRT cell lines. Description: MTS cell viability screen of epigenetic probes on the whole ATRT cell line panel (4 group 1 and 4 group 2). In kind it is cell-based, human. To be noted: 4 group 1 and 4 group 2 cell lines, varying doses.
Source text: Recent studies have reported promising therapeutic agents targeting a number of epigenetic and signaling pathways in ATRTs (Ginn and Gajjar, 2012), however the relevance of these agents to ATRT sub-types is unknown as these prior studies have examined a very limited number of cell lines. To identify additional ATRT sub-group specific pathways/targets, the effects of 12 small molecule inhibitors/chemical probes targeting epigenetic pathways on growth of 4 group 1 (CHLA266, CHLA04, 02, 05) and 4 group 2 ATRT (SH, CHLA06, BT16 and BT12) cell lines (FIG. 18A) were tested.
as §1, §2

In data set [7] the test system is G401, a cell line derived from a renal rhabdoid tumor. Description: Growth of G401 renal rhabdoid tumor cell line. In kind it is cell-based, human. To be noted: data not shown. How it is done:
as §1

Entries after “also recorded” stand apart in the source; their conditions may differ.

These results are taken from patent US20170298437A1, “METHODS AND USES RELATED TO RHABDOID TUMORS” (The Hospital For Sick Children, priority 2016, published 2017).

Take `C[C@H](NC(=O)Cc1cc(F)cc(F)c1)C(=O)N[C@H](C(=O)OC(C)(C)C)c1ccccc1` [DAPT, N-[N-(3,5-difluorophenacetyl)-L-alanyl]-S-phenylglycine t-butyl ester]: the “cell death / apoptosis (TUNEL)” value in data set [1] is listed as “increased cell death; also recorded: induced apopotosis”. Further, the “cell line growth (cell viability, MTS)” value is “no significant effects on cell growth; also recorded: largely insensitive” in data set [2] (group 2A/B (SH, CHLA06, BT16), DAPT or DM, varying doses, days 1-5, relative to DMSO); “inhibited group 1 and 2 ATRT cell line growth in a dose dependent manner; also recorded: sensitive” in data set [3] (group 1 (78C, CHLA05, CHLA02), DAPT or DM, varying doses, days 1-5, relative to DMSO). Moreover, in data set [4] (Western blot, increasing doses), the NICD expression entry is “dose dependent decrease in NICD expression”. Further, in data set [4] (qRT-PCR, four days post-treatment), the “NOTCH transcriptional targets, HES1 and HESS” value is given as “downregulation”.

Regarding `Cc1nc(Nc2ncc(C(=O)Nc3c(C)cccc3Cl)s2)cc(N2CCN(CCO)CC2)n1` [Dasatinib], the blood brain permeability entry in data set [5] was “demonstrated blood brain permeability”.

Regarding `Cc1sc2c(c1C)C(c1ccc(Cl)cc1)=N[C@@H](CC(=O)OC(C)(C)C)c1nnc(C)n1-2` [JQ1, (S)-tent-butyl 2-(4-(4-chlorophenyl)-2,3,9-trimethyl-6H-thieno[3,2-f][1,2,4]triazolo[4,3-a][1,4]diazepin-6-yl)acetate], in data set [6], the “effect on ATRT cell growth across sub-groups” value is recorded as “sub-group specific effect”. Further, the “changes in growth / sensitivity” value in data set [2] (varying doses, MTS) is 3 of the 4 group 2 cell lines showed no changes in growth. Further, in data set [3] (group 1 ATRT cell lines, MTS), the “growth inhibitory effects / sensitivity” value was “growth inhibitory effects were observed only in group 1 ATRT cell lines”.

Turning to `O=C(/C=C/c1ccc(CN(CCO)CCc2c[nH]c3ccccc23)cc1)NO` [LAQ824], in data set [6], the “effect on ATRT cell growth across sub-groups” value is recorded as “significantly diminished growth of all cell lines; also recorded: no sub-type specific effects”.

Take `Cc1cn(-c2cc(NC(=O)c3ccc(C)c(Nc4nccc(-c5cccnc5)n4)c3)cc(C(F)(F)F)c2)cn1` [Nilotinib]: the “growth / sensitivity to tyrosine kinase inhibitor” value in data set [2] (group 2 ATRT cell lines, MTS, 5 days) was “robustly diminished growth; also recorded: sensitive”; in data set [3] (group 1 ATRT cell lines, MTS, 5 days) it was “resistant”. Further, the “growth of G401” value in data set [7] is on record as “robustly inhibit the growth”.

`COc1cc2c(NC3CCN(C(C)C)CC3)nc(C3CCCCC3)nc2cc1OCCCN1CCCC1` [UNC0638]: in data set [6], the “effect on ATRT cell growth across sub-groups” value is “sub-group specific effect”. The “changes in growth / sensitivity” value in data set [2] (varying doses, MTS) is 3 of the 4 group 2 cell lines showed no changes in growth and largely insensitive. Further, in data set [3] (group 1 ATRT cell lines, MTS), the “growth inhibitory effects / sensitivity” value was “only group 1 ATRT cell lines were sensitive”.

Take `CCCc1cc(C)[nH]c(=O)c1CNC(=O)c1cc(-c2ccc(N3CCN(C(C)C)CC3)nc2)cc2c1cnn2C(C)C` [UNC1999]: the “effect on ATRT cell growth across sub-groups” value in data set [6] was “sub-group specific effect”. Also, the “changes in growth / sensitivity” value in data set [2] (varying doses, MTS) was 3 of the 4 group 2 cell lines showed no changes in growth and largely insensitive. Further, the “growth inhibitory effects / sensitivity” value in data set [3] (group 1 ATRT cell lines, MTS) is reported as “growth inhibitory effects were observed only in group 1 ATRT cell lines”.
